Among the test systems are SF-539 CNS; HOP-92 NSCLC; SR leukemia; MDA-MB-231 breast; HL-60(TB) leukemia; MALME-3M melanoma; A498 renal; NCI-H23 lung; SK-MEL-28 melanoma; MOLT-4 leukemia.
Holding throughout (assay): growth of human tumour cells (NCI), 48 h

Each structure is given as a SMILES string.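 Dose response: 5 concentrations. Exposure: 48 h. Format: 96-well plates. Endpoint: linear interpolation; highest concentration if not reached. GI50 is the concentration that inhibits growth by half. At the TGI there is no net growth.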

With `NC(N)=N/N=C/c1ccc(-c2ccc(-c3cc(Cl)cc(Cl)c3)s2)cc1`, the GI50 in the assay with SF-539 CNS was 1650 nM; in the assay with HOP-92 NSCLC, 1410 nM; in the assay with SR leukemia it was 326 nM; in the assay with MDA-MB-231 breast it was 1770 nM; in the assay on HL-60(TB) leukemia it was 1680 nM; in the assay on MALME-3M melanoma it was 1720 nM. The GI50 in the assay on A498 renal was 1250 nM; in the assay with NCI-H23 lung it was 1900 nM; in the assay with SK-MEL-28 melanoma, 1800 nM; in the assay with MOLT-4 leukemia, 1720 nM. Besides, the TGI with SF-539 CNS worked out at 3.1 µM; in the assay on HOP-92 NSCLC it was 3.13 µM; in the assay with SR leukemia it was 1730 nM; with MDA-MB-231 breast, 3.36 µM; with HL-60(TB) leukemia, 3.59 µM; in the assay with MALME-3M melanoma it was 3.42 µM. In addition, the TGI is 2550 nM in the assay with A498 renal, 3.88 µM in the assay with NCI-H23 lung, 3.51 µM with SK-MEL-28 melanoma and 4.3 µM with MOLT-4 leukemia.
